Earlier results, collected in patent US7494668B2, “Fast water-dispersible domperidone tablets” (Laboratorio Medinfar-Produtos Farmaceuticos, S.A., priority 2004, dated 2009).

Row | Compound | solubility in water
1 | O=c1[nH]c2ccccc2n1CCCN1CCC(n2c(=O)[nH]c3cc(Cl)ccc32)CC1 [Domperidone, 5-chloro-1-[1-[3-(2-oxo-2,3-dihydro-1H-benzimidazol-1-yl)propyl]piperidine-4-yl]-1,3-dihydro-2H-benzimidazol-2-one] | practically insoluble in water
2 | maleate | soluble in water
